Patent publication US20140357713A1, “ANTIMICROBIAL COMPOUNDS AND METHODS OF USE” (NexMed Holdings, Inc., priority 2012, published 2014)
Where two headings read alike, the source gives them in different places.

Assays:
[1] = Solubility (Sol., Table 1); format: physicochemical
[2] = system: Candida albicans (ATCC 90029); experiment: Minimum inhibitory concentration (MIC) assay, Example 33; format: cell-based; details: Candida albicans
Summary of the method: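 MIC read per CLSI after incubation at 35° C. Colonies in RPMI 1640 adjusted to OD530 0.08–0.13, diluted 1:50 and 1:20 to twice test density, then added 1:2 to wells holding 2-fold serial drug dilutions in RPMI 1640 (CLSI microdilution).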

[3] = system: Candida albicans (ATCC 90029); experiment: Time kill study, Example 33 (0 to 5 min); format: cell-based; details: 1×MIC
Summary of the method: (§1)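 Viable counts (Log10 CFU/mL) came from colonies counted after 24–48 hrs on agar plates. Samples were drawn at 0 min, 30 sec, 1 min and 5 min from equal-volume mixtures of compound solution and strain suspension, then diluted in test medium; CLSI procedures followed.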

[4] = system: Escherichia coli (ATCC 25922); experiment: Time kill study, Example 33 (0 to 5 min); format: cell-based; details: 1×MIC
Summary of the method: as §1

[5] = system: Pseudomonas aeruginosa (ATCC 27853); experiment: Time kill study, Example 33 (0 to 5 min); format: cell-based; details: 1×MIC
Summary of the method: as §1

[6] = system: Staphylococcus aureus (ATCC 29213); experiment: Time kill study, Example 33 (0 to 5 min); format: cell-based; details: 1×MIC
Summary of the method: as §1

[7] = system: Escherichia coli; experiment: Extended time kill study, Example 34 (0 to 24 h); format: cell-based
Summary of the method: (§2)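 Strain suspensions prepared as for MIC testing were mixed 1:1 with compound solution at higher multiples of MIC. Samples taken over 0 to 24 h were diluted in test medium and plated on agar, and colonies were counted after 24–48 h incubation.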

[8] = system: Staphylococcus aureus; experiment: Extended time kill study, Example 34 (0 to 24 h); format: cell-based
Summary of the method: as §2

Sol. [1]: 48%
MIC ([2]; ATCC90029, Table 19 summary, read-out: MIC): 6.25 µg/mL
MIC ([2]; ATCC90029, n = 1, read-out: MIC Candida albicans): 6.25 µg/mL
MIC ([2]; ATCC90029, n = 2, read-out: MIC Candida albicans): 6.25 µg/mL
SMILES: CCCCCCCCCCCCOC(=O)C(C)NCCN(CC)CC.Cl (centres unmarked) [Nex-62, Dodecyl 2-((2-(diethylamino)ethyl)amino)propanoate dihydrochloride]
Viable counts, Candida albicans time kill study ([3]; 0.5 min): 5.37 Log10 CFU/mL
Viable counts, Candida albicans time kill study ([3]; 1 min): 5.18 Log10 CFU/mL
Viable counts, Candida albicans time kill study ([3]; 5 min): 5.16 Log10 CFU/mL
Viable counts, Candida albicans time kill study ([3]; time 0): 5.12 Log10 CFU/mL
Viable counts, Escherichia coli time kill study ([4]; 0.5 min): 4.78 Log10 CFU/mL
Viable counts, Escherichia coli time kill study ([4]; 1 min): 5.02 Log10 CFU/mL
Viable counts, Escherichia coli time kill study ([4]; 5 min): 3.82 Log10 CFU/mL
Viable counts, Escherichia coli time kill study ([4]; time 0): 4.82 Log10 CFU/mL
Viable counts, Pseudomonas aeruginosa time kill study ([5]; 0.5 min): 4 Log10 CFU/mL
Viable counts, Pseudomonas aeruginosa time kill study ([5]; 1 min): <3.70 Log10 CFU/mL
Viable counts, Pseudomonas aeruginosa time kill study ([5]; 5 min): <3.52 Log10 CFU/mL
Viable counts, Pseudomonas aeruginosa time kill study ([5]; time 0): 5.52 Log10 CFU/mL
Viable counts, Staphylococcus aureus time kill study ([6]; 0.5 min): 6.32 Log10 CFU/mL
Viable counts, Staphylococcus aureus time kill study ([6]; 1 min): 6.35 Log10 CFU/mL
Viable counts, Staphylococcus aureus time kill study ([6]; 5 min): 6.31 Log10 CFU/mL
Viable counts, Staphylococcus aureus time kill study ([6]; time 0): 6.34 Log10 CFU/mL
Viable counts, Escherichia coli time kill study ([7]; 1 × MIC, 1 h): 1 Log10 CFU/mL
Viable counts, Escherichia coli time kill study ([7]; 1 × MIC, 2 h): 1 Log10 CFU/mL
Viable counts, Escherichia coli time kill study ([7]; 1 × MIC, 4 h): <1 Log10 CFU/mL
Viable counts, Escherichia coli time kill study ([7]; 1 × MIC, 6 h): 2.18 Log10 CFU/mL
Viable counts, Escherichia coli time kill study ([7]; 1 × MIC, 24 h): 7.99 Log10 CFU/mL
Viable counts, Escherichia coli time kill study ([7]; 1×MIC, time 0): 5.06 Log10 CFU/mL
Viable counts, Escherichia coli time kill study ([7]; 2 × MIC, 1 h): <1 Log10 CFU/mL
Viable counts, Escherichia coli time kill study ([7]; 2 × MIC, 2 h): <1 Log10 CFU/mL
Viable counts, Escherichia coli time kill study ([7]; 2 × MIC, 4 h): <1 Log10 CFU/mL
Viable counts, Escherichia coli time kill study ([7]; 2 × MIC, 6 h): <1 Log10 CFU/mL
Viable counts, Escherichia coli time kill study ([7]; 2 × MIC, 24 h): <1 Log10 CFU/mL
Viable counts, Escherichia coli time kill study ([7]; 2 × MIC, time 0): 5.18 Log10 CFU/mL
Viable counts, Escherichia coli time kill study ([7]; 4 × MIC, 1 h): <1 Log10 CFU/mL
Viable counts, Escherichia coli time kill study ([7]; 4 × MIC, 2 h): <1 Log10 CFU/mL
Viable counts, Escherichia coli time kill study ([7]; 4 × MIC, 4 h): <1 Log10 CFU/mL
Viable counts, Escherichia coli time kill study ([7]; 4 × MIC, 6 h): <1 Log10 CFU/mL
Viable counts, Escherichia coli time kill study ([7]; 4 × MIC, 24 h): <1 Log10 CFU/mL
Viable counts, Escherichia coli time kill study ([7]; 4 × MIC, time 0): 5.12 Log10 CFU/mL
Viable counts, Staphylococcus aureus time kill study ([8]; 1 × MIC, 1 h): 6.00 Log10 CFU/mL
Viable counts, Staphylococcus aureus time kill study ([8]; 1 × MIC, 2 h): 5.66 Log10 CFU/mL
Viable counts, Staphylococcus aureus time kill study ([8]; 1 × MIC, 4 h): 4.70 Log10 CFU/mL
Viable counts, Staphylococcus aureus time kill study ([8]; 1 × MIC, 6 h): 4.48 Log10 CFU/mL
Viable counts, Staphylococcus aureus time kill study ([8]; 1 × MIC, 24 h): <1 Log10 CFU/mL
Viable counts, Staphylococcus aureus time kill study ([8]; 1×MIC, time 0): 6.23 Log10 CFU/mL
Viable counts, Staphylococcus aureus time kill study ([8]; 2 × MIC, 1 h): 5.30 Log10 CFU/mL
Viable counts, Staphylococcus aureus time kill study ([8]; 2 × MIC, 2 h): <3 Log10 CFU/mL
Viable counts, Staphylococcus aureus time kill study ([8]; 2 × MIC, 4 h): <3 Log10 CFU/mL
Viable counts, Staphylococcus aureus time kill study ([8]; 2 × MIC, 6 h): <3 Log10 CFU/mL
Viable counts, Staphylococcus aureus time kill study ([8]; 2 × MIC, 24 h): <1 Log10 CFU/mL
Viable counts, Staphylococcus aureus time kill study ([8]; 2 × MIC, time 0): 6.25 Log10 CFU/mL
Viable counts, Staphylococcus aureus time kill study ([8]; 4 × MIC, 1 h): 5.30 Log10 CFU/mL
Viable counts, Staphylococcus aureus time kill study ([8]; 4 × MIC, 2 h): <3 Log10 CFU/mL
Viable counts, Staphylococcus aureus time kill study ([8]; 4 × MIC, 4 h): <3 Log10 CFU/mL
Viable counts, Staphylococcus aureus time kill study ([8]; 4 × MIC, 6 h): <3 Log10 CFU/mL
Viable counts, Staphylococcus aureus time kill study ([8]; 4 × MIC, 24 h): <1 Log10 CFU/mL
Viable counts, Staphylococcus aureus time kill study ([8]; 4 × MIC, time 0): 6.20 Log10 CFU/mL
